Test results published in patent US20230310573A1, “Stabilized Vaccine Compositions” (priority 2020, published 2023).
Where two headings read alike, the source gives them in different places.

Columns and labels:
[1] = biological target: T1, RSV pre-fusion F (preF) protein of SEQ ID NO: 10 (Human respiratory syncytial virus A, UniProt P03420, D486N/DEL108-136/I379V/M447V/N67I/P102A/S215P); format: physicochemical
T1 construct: made in house

[2] = biological target: T1, RSV pre-fusion F (preF) protein of SEQ ID NO: 10; test: UF/DF buffer exchange and slow freezing, aggregation by analytical SEC; format: physicochemical; details: for aggregation after buffer exchange and slow freezing: 1:50
Method: Buffer exchange of samples with and without stabilizing compound III was performed by ultrafiltration/diafiltration (UF/DF), using a Cogent μScale TFF system (Merck). […] Stabilizing compound III was preincubated with the sample and in one case also added to the buffer used for the UF/DF (see FIG. 12 labeled 1:3 & In Buffer). Runs were performed using Pelicon XL Biomax 50 cm2 filter cassettes. For each run, the system was flushed with MilliQ water at a crossflow of 30-50 mL/min, then the system was cleaned with NaOH 0.1M (recirculated for at least 5 min.) After this, the system was flushed again with MilliQ water until a pH of 7 was reached, followed by a 5 min. flush of the system with the desired buffer. Subsequently, the protein (50 mL) was added to the system for diafiltration against 7 diavolumes (350 mL) of the desired buffer.
(§1) Each formulation (pre and post UF/DF samples) was diluted to 0.3 mg/ml. 0.75 ml of each formulation was filled in glass injection vials with rubber stopper and sealed with aluminum caps. Vials were frozen to −70° C. in 24 hours under controlled conditions. Samples were subsequently thawed to RT and analyzed by analytical Size Exclusion Chromatography (SEC) to measure loss of RSV F trimer compared the sample that was kept at 4° C. In addition, the different formulations with and without stabilizing compound III were evaluated in DSF to measure the melting temperature. For experimental details see example 2.
Stabilizing compound III was added in a 1:50 trimer:compound ratio before the UD/DF and incubated for 24 hours at […] The excess of unbound stabilizing compound III is removed during the UF/DF process.
as §1, with “and post dialysis samples) was” for “and post UF/DF samples) was”, “Vials were slowly frozen to” for “Vials were frozen to”, “in 24 hours. Samples were” for “in 24 hours under controlled conditions. Samples were”, “and without compound III” for “and without stabilizing compound III”

In the case of `CS(=O)(=O)CCCn1c(Cn2c(=O)n(C3CC3)c3ccncc32)nc2cc(Br)ccc21` [Compound III, 3-[[5-bromo-1-(3-methylsulfonylpropyl)benzimidazol-2-yl]methyl]-1-cyclopropyl-imidazo[4,5-c]pyridin-2-one], the “trimer content after heat stress (SEC)” value ([1]; 6 weeks at 37° C., AP1, formulation 1, formulation 5a, trimer:compound 1:3 and 1:9) is reported as “trimer content was not changed compared to the control”, the “aggregation after heat stress (SEC)” value ([1]; 6 weeks at 47° C., AP1, formulation 1, formulation 5a, trimer:compound 1:3 and 1:9) is reported as “aggregation was higher for the samples without compound compared to the samples with compound” and the “formation of protein aggregates in liquid phase (SEC trimer content vs 4° C. control)” value ([1]; 37° C., up to 26 weeks, different buffers, 1:3 or 1:9) is reported as “protects from the formation of protein aggregates”. The “protection from aggregation over time, by ratio” value ([1]; 37° C., up to 26 weeks, higher ratios (1:9)) was “best protection from aggregation over time”, the “protection from aggregation at 37° C.” value ([1]; AP1, 9, 16 or 26 weeks) was “did not show protection from aggregation” and the “trimer content at 37° C.” value ([1]; Formulation 1, 9, 16 or 26 weeks) was “improved the trimer content”. For the same compound, the “trimer content at 37° C.” value ([1]; Formulation 5a and FB12, 9, 16 or 26 weeks) was “always improved the trimer content”, the “aggregation after buffer exchange and subsequent slow freezing” value ([2]; 1:50 trimer:compound before UF/DF, irrespective of the buffer) was “protected from aggregation” and the “aggregation after buffer exchange and slow freezing” value ([2]; AP1 buffer) was “did not provide enough protections against aggregation”. The “aggregation after buffer exchange and slow freezing” value ([2]; Formulation 1 without PS20) was “provided protection against aggregation” and the “aggregation after UF/DF and slow freezing” value ([2]; Formulation buffer 6, irrespective of compound concentration) was “protected from aggregation”.
